Active and inactive are the calls of the source. Unless noted, no cut-off for these calls is given here.
Tests used:
Platelet [1] = assay: Potency index, ratio of ozagrel IC50 to test compound IC50 for inhibition of arachidonic acid-induced platelet aggregation in human platelet rich plasma; type: functional
[2] = target: T1, Prostaglandin G/H synthase 1 (Ovis aries, UniProt P05979); assay: Inhibition of ovine COX-1 assessed as reduction in PGH2 production at 100 uM using arachidonic acid as substrate preincubated for 5 mins followed by substrate and hematin addition measured after 2 mins by ELISA relative to control; details: sheep
T1 sequence (P05979 whole entry): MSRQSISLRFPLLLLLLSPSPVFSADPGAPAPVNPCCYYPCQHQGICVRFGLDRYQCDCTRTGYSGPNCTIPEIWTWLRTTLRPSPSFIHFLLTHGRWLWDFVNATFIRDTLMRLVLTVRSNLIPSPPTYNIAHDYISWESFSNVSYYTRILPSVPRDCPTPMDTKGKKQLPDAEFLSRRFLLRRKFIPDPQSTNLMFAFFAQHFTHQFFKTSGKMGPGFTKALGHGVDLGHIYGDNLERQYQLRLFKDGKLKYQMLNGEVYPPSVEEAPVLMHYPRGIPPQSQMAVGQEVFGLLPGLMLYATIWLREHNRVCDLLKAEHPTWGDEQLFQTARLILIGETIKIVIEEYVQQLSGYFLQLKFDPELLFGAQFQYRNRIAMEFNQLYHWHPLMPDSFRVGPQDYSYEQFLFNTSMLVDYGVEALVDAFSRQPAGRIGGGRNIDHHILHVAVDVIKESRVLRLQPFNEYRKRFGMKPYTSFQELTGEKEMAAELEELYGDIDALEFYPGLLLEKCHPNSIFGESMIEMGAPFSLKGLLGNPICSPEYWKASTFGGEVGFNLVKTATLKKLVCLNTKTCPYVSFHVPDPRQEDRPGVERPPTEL

Platelet [3] = assay: Antiplatelet activity in human platelet rich plasma assessed as inhibition of arachidonic acid-induced platelet aggregation at 100 uM preincubated for 2 mins followed by arachidonic acid addition by turbidimetric method relative to control; type: functional
[4] = target: T2, Prostaglandin G/H synthase 2 (Homo sapiens, UniProt P35354); assay: Inhibition of recombinant human COX-2 assessed as reduction in PGH2 production at 100 uM using arachidonic acid as substrate preincubated for 5 mins followed by substrate and hematin addition measured after 2 mins by ELISA relative to control
T2 sequence (P35354 whole entry): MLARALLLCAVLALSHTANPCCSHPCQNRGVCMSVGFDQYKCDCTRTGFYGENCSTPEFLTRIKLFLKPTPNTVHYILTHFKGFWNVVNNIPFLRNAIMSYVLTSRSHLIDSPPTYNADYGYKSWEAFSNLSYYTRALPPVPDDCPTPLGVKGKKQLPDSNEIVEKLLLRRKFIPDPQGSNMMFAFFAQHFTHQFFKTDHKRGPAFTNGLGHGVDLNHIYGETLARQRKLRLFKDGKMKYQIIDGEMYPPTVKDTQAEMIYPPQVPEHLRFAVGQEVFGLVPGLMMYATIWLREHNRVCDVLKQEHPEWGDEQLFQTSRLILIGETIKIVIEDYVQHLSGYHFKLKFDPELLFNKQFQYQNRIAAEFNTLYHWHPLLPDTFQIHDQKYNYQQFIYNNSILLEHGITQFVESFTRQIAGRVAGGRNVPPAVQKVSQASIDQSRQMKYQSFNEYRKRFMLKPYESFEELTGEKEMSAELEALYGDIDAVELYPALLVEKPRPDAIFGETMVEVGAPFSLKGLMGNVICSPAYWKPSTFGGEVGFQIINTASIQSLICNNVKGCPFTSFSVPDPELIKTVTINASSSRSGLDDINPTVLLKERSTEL

Platelet [5] = assay: Antiplatelet activity in human platelet rich plasma assessed as inhibition of collagen-induced platelet aggregation at 100 uM preincubated for 2 mins followed by collagen addition by turbidimetric method relative to control; type: cell-based
Platelet [6] = assay: Antiplatelet activity in human platelet rich plasma assessed as inhibition of collagen-induced platelet aggregation preincubated for 2 mins followed by collagen addition by turbidimetric method; type: cell-based
Platelet [7] = assay: Potency index, ratio of aspirin IC50 to test compound IC50 for inhibition of arachidonic acid-induced platelet aggregation in human platelet rich plasma; type: functional
Plasma [8] = assay: Change in prothrombin time in human plasma at 100 uM incubated for 15 mins at room temperature and 2 mins at 37 degC in presence of calcium thromboplastin; type: ADME, cell-free
Plasma [9] = assay: Change in activated partial thromboplastin time in human plasma at 100 uM incubated for 15 mins at room temperature and 2 mins at 37 degC in presence of CaCl2; type: ADME, cell-free
[10] = target: T2, Prostaglandin G/H synthase 2; assay: Inhibition of recombinant human COX-2 assessed as reduction in PGH2 production up to 100 uM using arachidonic acid as substrate preincubated for 5 mins followed by substrate and hematin addition measured after 2 mins by ELISA relative to control
Blood = assay: Reduction of clot retraction in human whole blood after 2 hrs; type: ADME, tissue-based
[11] = target: Prostaglandin G/H synthase 1 (Homo sapiens, UniProt P23219); assay: Inhibition of COX1 in human platelet rich plasma assessed as decrease in PGE2 production at 100 uM using arachidonic acid as substrate after 5 mins by ELISA
Prostaglandin G/H synthase 1 (Homo sapiens, UniProt P23219), sequence (P23219 whole entry): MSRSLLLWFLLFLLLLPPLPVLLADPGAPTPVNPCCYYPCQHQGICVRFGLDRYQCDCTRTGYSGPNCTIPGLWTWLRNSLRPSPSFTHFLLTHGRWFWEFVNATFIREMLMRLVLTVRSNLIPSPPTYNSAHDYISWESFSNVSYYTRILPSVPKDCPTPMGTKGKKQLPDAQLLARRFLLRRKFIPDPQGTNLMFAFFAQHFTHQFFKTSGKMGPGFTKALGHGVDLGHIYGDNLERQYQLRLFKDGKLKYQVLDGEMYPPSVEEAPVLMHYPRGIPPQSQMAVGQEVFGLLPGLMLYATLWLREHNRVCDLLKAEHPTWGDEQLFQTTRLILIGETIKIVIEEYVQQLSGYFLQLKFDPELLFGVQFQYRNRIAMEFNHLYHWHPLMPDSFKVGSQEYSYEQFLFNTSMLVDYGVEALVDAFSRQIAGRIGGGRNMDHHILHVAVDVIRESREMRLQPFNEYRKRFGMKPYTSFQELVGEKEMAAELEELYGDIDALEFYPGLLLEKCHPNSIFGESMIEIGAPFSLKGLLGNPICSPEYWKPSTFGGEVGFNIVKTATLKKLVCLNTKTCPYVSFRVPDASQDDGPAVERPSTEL

Platelet [12] = assay: Antiplatelet activity in human platelet rich plasma assessed as inhibition of […]-induced platelet aggregation at 100 uM preincubated for 2 mins followed by […] addition by turbidimetric method; type: functional, cell-based
[13] = Hemolytic activity against human erythrocytes after 3 hrs relative to control; type: ADME, cell-based, Erythrocyte; details: read-out: Activity
[14] = Binding affinity to DOPC/DOPS large unilamellar vesicles assessed as blue shift at 100 uM by DAPI staining based fluorescence assay
[15] = target: T3, Thromboxane-A synthase (Homo sapiens) (UniProt P24557); assay: Inhibition of TXS in human platelet rich plasma assessed as decrease in TXB2 production at 100 uM using arachidonic acid after 5 mins by ELISA
T3 sequence (whole entry): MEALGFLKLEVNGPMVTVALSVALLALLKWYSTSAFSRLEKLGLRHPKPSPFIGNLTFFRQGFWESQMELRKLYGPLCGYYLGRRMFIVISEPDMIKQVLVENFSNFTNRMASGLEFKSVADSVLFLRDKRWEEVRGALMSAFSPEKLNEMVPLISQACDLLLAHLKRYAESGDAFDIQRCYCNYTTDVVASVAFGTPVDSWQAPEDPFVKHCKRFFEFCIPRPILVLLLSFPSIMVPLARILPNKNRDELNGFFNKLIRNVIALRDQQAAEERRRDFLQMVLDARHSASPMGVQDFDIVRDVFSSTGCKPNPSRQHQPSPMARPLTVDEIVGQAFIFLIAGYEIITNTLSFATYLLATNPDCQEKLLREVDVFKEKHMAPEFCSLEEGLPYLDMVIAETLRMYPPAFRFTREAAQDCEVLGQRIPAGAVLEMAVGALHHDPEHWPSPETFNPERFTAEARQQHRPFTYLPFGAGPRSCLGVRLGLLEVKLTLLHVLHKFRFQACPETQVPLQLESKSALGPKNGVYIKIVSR

[16] = target: T1, Prostaglandin G/H synthase 1; assay: Inhibition of ovine COX-1 assessed as reduction in PGH2 production up to 100 uM using arachidonic acid as substrate preincubated for 5 mins followed by substrate and hematin addition measured after 2 mins by ELISA relative to control; details: sheep
Platelet [17] = assay: Antiplatelet activity in human platelet rich plasma assessed as inhibition of ADP-induced platelet aggregation preincubated for 2 mins followed by ADP addition by turbidimetric method; type: cell-based
Platelet [18] = assay: Drug uptake in human platelet assessed as co-localization with CD31 at 100 uM by epifluorescence assay; type: ADME, cell-based
Platelet [19] = assay: Antiplatelet activity in human platelet rich plasma assessed as inhibition of arachidonic acid-induced platelet aggregation preincubated for 2 mins followed by arachidonic acid addition by turbidimetric method relative to control; type: functional, cell-based
Platelet [20] = assay: Drug uptake in human platelet assessed as co-localization with CD31 at 100 uM by confocal microscopy analysis; type: ADME, cell-based
Platelet [21] = assay: Antiplatelet activity in human platelet rich plasma assessed as inhibition of epinephrine-induced platelet aggregation preincubated for 2 mins followed by epinephrine addition by turbidimetric method; type: cell-based
Platelet [22] = assay: Antiplatelet activity in human platelet rich plasma assessed as inhibition of epinephrine-induced platelet aggregation at 100 uM preincubated for 2 mins followed by epinephrine addition by turbidimetric method relative to control; type: cell-based
Platelet [23] = assay: Antiplatelet activity in human platelet rich plasma assessed as inhibition of ADP-induced platelet aggregation at 100 uM preincubated for 2 mins followed by ADP addition by turbidimetric method relative to control; type: cell-based
Cytochrome P450 3A4 = Cytochrome P450 3A4 (Homo sapiens, UniProt P08684); assay: Inhibition of recombinant human CYP3A4 expressed in baculosomes using BOMR as substrate preincubated for 10 mins followed by substrate/NADP+ addition measured for 1 hr; type: ADME; details: human, recombinant enzyme, 1 h
Cytochrome P450 3A4, sequence (P08684 whole entry): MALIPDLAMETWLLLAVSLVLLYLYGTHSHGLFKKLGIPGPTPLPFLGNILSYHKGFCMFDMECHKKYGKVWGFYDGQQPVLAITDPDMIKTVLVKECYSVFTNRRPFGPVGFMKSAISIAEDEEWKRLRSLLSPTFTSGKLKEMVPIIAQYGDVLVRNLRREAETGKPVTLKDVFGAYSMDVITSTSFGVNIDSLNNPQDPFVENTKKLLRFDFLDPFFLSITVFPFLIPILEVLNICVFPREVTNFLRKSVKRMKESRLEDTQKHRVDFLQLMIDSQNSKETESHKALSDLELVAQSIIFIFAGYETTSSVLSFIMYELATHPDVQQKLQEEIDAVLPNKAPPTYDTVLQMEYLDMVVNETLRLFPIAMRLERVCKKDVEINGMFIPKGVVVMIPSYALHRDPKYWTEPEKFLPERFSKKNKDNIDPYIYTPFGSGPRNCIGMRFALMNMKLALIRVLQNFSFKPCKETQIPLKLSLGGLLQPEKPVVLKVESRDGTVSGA

inhibition (INH) [2]: Active
inhibition (INH) [4]: Active
IC50 (Platelet [6]): > 100 µM
inhibition (INH) [10]: Not Active
inhibition (INH) [11]: Not Active
Activity [14]: Active
inhibition [15]: Active
inhibition (INH) [16]: Not Active
IC50 (Platelet [17]): > 100 µM
Drug uptake (Platelet [18]): Active
IC50 (Platelet [19]): 3.67 to 10.2 µM
Drug uptake (Platelet [20]): Active
IC50 (Platelet [21]): > 100 µM
inhibition (INH) (Cytochrome P450 3A4): Dose-dependent effect
Compound: Cc1cc(C(=O)N/N=C/c2ccc(O)cc2)c2c(C)nn(-c3ccccc3)c2n1
Ratio IC50 (Platelet [1]): <=10
inhibition at 100 µM (Platelet [3]): 96.8%
inhibition at 100 µM (Platelet [5]): 64.6%
Ratio IC50 (Platelet [7]): <=10
Activity (Plasma [8]): Non-Toxic
Activity (Plasma [9]): Non-Toxic
Activity (Blood): Non-Toxic
inhibition (Platelet [12]): inactive
hemolysis at 3 h [13]: 0%
inhibition at 100 µM (Platelet [22]): 3.3%
inhibition at 100 µM (Platelet [23]): 3.22%

— ChEMBL document CHEMBL4033666, “Synthesis and mechanistic evaluation of novel N'-benzylidene-carbohydrazide-1H-pyrazolo[3,4-b]pyridine derivatives as non-anionic antiplatelet agents” (Eur J Med Chem, 2017)
